Results published in paper PMC6272185 (Molecules, 2015).
Converted amounts (≈) assume the structure as drawn. Counter-ions that a name gives are not always drawn. Like-named read-outs stand apart in the source and are kept apart here.

Columns and labels:
[1] = system: NO production by LPS-stimulated RAW 264.7 macrophages; experiment: Inhibition of NO production by LPS-stimulated macrophages (Griess); format: cell-based, murine; conditions: mean ± SD, n = 3
[2] = Macrophage cytotoxicity, LDH release assay; format: cell-based, murine; conditions: mouse, RAW 264.7 macrophages stimulated with LPS; LPS-stimulated RAW 264.7, LDH release; mean ± SD, n = 3
Procedure: Cytotoxic effects of chalcone samples on RAW 264.7 cell viability in cultures stimulated with LPS were determined using the LDH (lactate dehydrogenase) release assay as previously described [58]. Cytoplasmic enzyme LDH release into cell culture supernatants was detected using a commercial LDH kit (Doles, GO, Brazil). Cell death was expressed as percentage of LDH release, which was calculated using the following formula: percentage of LDH release = 100 × (test LDH release − spontaneous release)/(maximum release − spontaneous release). The maximum release was determined following dissolution of cell monolayers using 1% (vol/vol) Triton X-100. The spontaneous release was determined in supernatants from cultures incubated in the presence of LPS and DMSO, used as a solvent for chalcone samples.

M. bovis BCG = experiment: microbe, parasite or virus in culture; format: cell-based, Mycobacterium bovis BCG; conditions: Mycobacterium tuberculosis variant bovis BCG, BCG, 168 h; for MIC50: read-out: MIC50 M. bovis BCG; for MIC90: read-out: MIC90 M. bovis BCG
[3] = system: IL-1β production by LPS-stimulated RAW 264.7 macrophages; experiment: Inhibition of IL-1β production by LPS-stimulated macrophages (ELISA); format: cell-based, murine; conditions: Mus musculus, RAW264.7, 24 h, read-out: IC50 IL-1β
Procedure: (§1) Murine RAW 264.7 macrophage cell line (American Type Culture Collection, Manassas, VA, USA), was cultured in Dulbecco’s modified Eagle’s medium (DMEM-F12) supplemented with 10% Fetal Bovine Serum (FBS) and gentamicin (50 µg/mL) in 5% CO2 atmosphere at 37 °C. For experiments, the cells were seeded in 96-well plates (1 × 10^5 cells/well) and incubated for 24 h at 37 °C. For macrophage stimulation, the cell cultures were treated with LPS (1 µg/mL) and incubated for additional 24 h in the presence or absence of the chalcone samples (samples 1–41) that were used at concentrations of 100, 20, 4 and 0.8 µg/mL. In some experiments, a nitric oxide (NO) inhibitor, L-NMMA (20 μg/mL), was used as a positive control of NO inhibition, and a non-steroidal anti-inflammatory drug indomethacin, known to inhibit production of prostaglandins, was used as a positive control of PGE2 inhibition.
(§2) The frozen culture supernatants samples were thawed and immediately analyzed using commercially available enzyme-linked immunosorbent assay (ELISA) kits to measure TNF-α, IL-1β (BD Biosciences) and PGE2 (R&D Systems, Minneapolis, MN, USA), according to the manufacturer’s instructions. Standard curves for each mediator were generated using reference cytokine concentrations supplied by the manufacturer. Nitric oxide (NO) generation was assessed by the Griess method to measure nitrites, which are stable breakdown NO products.

[4] = system: TNF-α production by LPS-stimulated RAW 264.7 macrophages; experiment: Inhibition of TNF-α production by LPS-stimulated macrophages (ELISA); format: cell-based, murine; conditions: Mus musculus, RAW264.7; LPS (1 µg/mL)-stimulated RAW 264.7, 24 h; mean ± SD, n = 3; read-out: IC50 TNF-α
[5] = system: PGE2 production by LPS-stimulated RAW 264.7 macrophages; experiment: Inhibition of PGE2 production by LPS-stimulated macrophages (ELISA); format: cell-based, murine; conditions: for IC50: Mus musculus, RAW264.7, 24 h, read-out: IC50 PGE2; for prostaglandin (PGE2) value: only LPS-treated cells 436.0 ± 5.8 pg/mL
Procedure: as §1, §2

M. tuberculosis H37Rv = experiment: microbe, parasite or virus in culture; format: cell-based, Mycobacterium tuberculosis; conditions: Mycobacterium tuberculosis
M. tuberculosis M299 = experiment: microbe, parasite or virus in culture; format: cell-based, Mycobacterium tuberculosis; conditions: Mycobacterium tuberculosis, M299, 120 h
[6] = H37RV, 120 h, read-out: MIC50 M. tuberculosis H37Rv
[7] = Mus musculus, RAW264.7, 24 h, LPS (1 µg/mL)-stimulated RAW 264.7, 24 h, read-out: IC50 NO
[8] = Table 5, same values as M. tuberculosis H37Rv in Table 3, read-out: MIC50

Compound	IC50 [2]	MIC50 (M. bovis BCG)	MIC90 (M. bovis BCG)	IC50 [3]	IC50 [4]	IC50 [5]	MIC90 (M. tuberculosis H37Rv; H37RV, 120 h)	MIC50 (M. tuberculosis H37Rv; [6])	IC50 [1, 7]	further results
COc1ccc(C(=O)/C=C/c2ccc3c(c2)OCO3)cc1 [Chalcone 28]	> 354 µM	> 354 µM	> 354 µM	> 354 µM	> 354 µM	22.1 ± 0.63 µM				IC50 ([1]; LPS (1 µg/mL)-stimulated RAW 264.7, 24 h, read-out: IC50 NO): 14.9 ± 4.1 µM; IC50 ([1]; Mus musculus, RAW264.7, 24 h, read-out: IC50 NO, LPS (1 µg/mL)-stimulated RAW 264.7, 24 h): < 21 µM
CO[C@H]1/C=C/O[C@@]2(C)Oc3c(C)c(O)c4c(O)c(c(/C=N/N5CCN(C)CC5)c(O)c4c3C2=O)NC(=O)/C(C)=C\C=C\[C@H](C)[C@H](O)[C@@H](C)[C@@H](O)[C@@H](C)[C@H](OC(C)=O)[C@@H]1C [Rifampicin, rifampicin, reference compound]		0.01 ± 0.03 µM (≈ 0.00823 µg/mL)	0.2 ± 0.01 µM (≈ 0.165 µg/mL)				0.15 ± 0.08 µM (≈ 0.123 µg/mL)	0.11 ± 0.02 µM (≈ 0.0905 µg/mL)		MIC50 (M. tuberculosis M299): 0.2 ± 0.18 µM (≈ 0.165 µg/mL); MIC90 (M. tuberculosis M299): 3.3 ± 0.16 µM (≈ 2.72 µg/mL)
[H]/N=C(/NC)NCCC[C@H](N)C(=O)O [L-NMMA, N^G-Monomethyl-L-arginine acetate salt, reference compound]									78.3 ± 6.5 µM	
COc1ccc(C(=O)/C=C/c2ccc(Cl)cc2)cc1 [Chalcone 26]	> 367 µM	91.2 ± 5 µM (≈ 24.9 µg/mL)	287 ± 7.8 µM (≈ 78.2 µg/mL)	> 367 µM	> 367 µM	57.7 ± 1.9 µM			25.3 ± 3.9 µM	
O=C(/C=C/c1ccccc1)c1ccccc1 [Chalcone 1, 1,3-diphenyl-2-propenone, reference compound]	177 ± 9.5 µM	137 ± 4.7 µM (≈ 28.6 µg/mL)	383 ± 9.1 µM (≈ 79.8 µg/mL)		> 480 µM				41.6 ± 2 µM	
O=C(/C=C/c1ccc([N+](=O)[O-])cc1)c1ccccc1 [Chalcone 37]	> 395 µM	> 395 µM	> 395 µM	> 395 µM	> 395 µM	322 ± 3.7 µM			58.6 ± 4.5 µM	
Cc1ccc(C(=O)/C=C/c2ccc3c(c2)OCO3)cc1 [Chalcone 20]	> 376 µM	> 376 µM	> 376 µM	> 376 µM	> 376 µM	147.4 ± 1.2 µM			30.1 ± 1.2 µM	
O=C(/C=C/c1ccccn1)c1ccccc1 [Chalcone 7]	> 478 µM	35.8 ± 7.2 µM (≈ 7.49 µg/mL)	441 ± 9.5 µM (≈ 92.2 µg/mL)		> 478 µM		> 478 µM	> 478 µM	> 478 µM	
COc1ccc(C(=O)/C=C/c2ccc(N(C)C)cc2)cc1 [Chalcone 27]	226 ± 3.5 µM	309 ± 5 µM (≈ 86.9 µg/mL)	> 355 µM		> 355 µM				44.6 ± 5.2 µM	
COc1ccc(/C=C/C(=O)c2ccccc2Cl)cc1OC [Chalcone 36]	> 330 µM	270 ± 3.9 µM (≈ 81.6 µg/mL)	> 330 µM		> 330 µM				188 ± 4.1 µM	
Cc1ccc(C(=O)/C=C/c2ccc([N+](=O)[O-])cc2)cc1 [Chalcone 39]	329 ± 3.9 µM	28.1 ± 5.4 µM (≈ 7.51 µg/mL)	344 ± 6.3 µM (≈ 92 µg/mL)		> 373 µM		> 373 µM	> 373 µM	114 ± 4.8 µM	
O=C(/C=C/c1ccc(F)cc1)c1ccccc1Cl [Chalcone 32]	> 384 µM	> 384 µM	> 384 µM		> 384 µM				> 384 µM	
COc1ccc(/C=C/C(=O)c2ccc(C)cc2)cc1 [Chalcone 21]	> 396 µM	33.3 ± 5.4 µM (≈ 8.4 µg/mL)	362 ± 5.9 µM (≈ 91.4 µg/mL)	> 396 µM	> 396 µM	50.1 ± 1 µM	368 ± 5.2 µM (≈ 92.9 µg/mL)	66.9 ± 6.2 µM (≈ 16.9 µg/mL)	30.6 ± 4.7 µM	MIC50 (M. tuberculosis H37Rv; [8]): 66.9 ± 6.2 µM (≈ 16.9 µg/mL)
COc1ccc2c(c1)c(CC(=O)O)c(C)n2C(=O)c1ccc(Cl)cc1 [indomethacin, reference compound]										prostaglandin (PGE2) value ([5]; 0.0004 µg/mL): 340.7 ± 1.1 pg/mL; prostaglandin (PGE2) value ([5]; 0.004 µg/mL): 271.6 ± 2.6 pg/mL; prostaglandin (PGE2) value ([5]; 0.04 µg/mL): 171.8 ± 1.2 pg/mL; prostaglandin (PGE2) value ([5]; 0.2 µg/mL): 11.8 ± 1.9 pg/mL
Cc1ccc(C(=O)/C=C/c2ccc(N(C)C)cc2)cc1 [Chalcone 19]	> 377 µM	56.4 ± 4.4 µM (≈ 15 µg/mL)	322.7 ± 1.7 µM (≈ 85.6 µg/mL)	> 377 µM	> 377 µM	> 377 µM	> 377 µM	112 ± 6.4 µM (≈ 29.8 µg/mL)	27.8 ± 3.8 µM	MIC50 (M. tuberculosis H37Rv; [8]): 112 ± 6.4 µM (≈ 29.8 µg/mL)
